Experiments:
[1] = system: Aspergillus fumigatus; assay: In vitro antifungal assay (zone of inhibition, MIC); assay type: cell-based
Experimental: (§1) The free ligands and their cyclometallated ruthenium(II) carbonyl complexes were screened for their in vitro antimicrobial activity against certain pathogenic bacterial and fungal species at three different concentrations using disc diffusion method.
(§2) Antimicrobial activities of [RuHClCO(PPh3)3], ligands H2L^1–4 and new organometallic Ru(II) complexes (1–4) were evaluated by agar well diffusion method[76] as reported, by taking Staphylococcus aureus, Streptococcus pneumonie, Pseudomonas aeruginosa, Salmonella paratyphi and fungus such as Candida albicans, Trichophyton rubrum, Aspergillus niger, Aspergillus fumigatus and Candida tropicalis. The above said all test organisms were obtained from the MTCC, Chandigarh, India and Microbiological laboratory, Coimbatore, Tamil Nadu, India. The antimicrobial activity of the test compounds was checked with various concentrations (25 μg ml^−1, 50 μg ml^−1 and 100 μg ml^−1) against all the test pathogens. Gentamicin and ketoconazole were used as positive controls to study the antibacterial and antifungal activities respectively. Each experiment was performed in triplicate and the results are represented as average zone of inhibition and minimum inhibitory concentration of all the test pathogens.

[2] = system: Aspergillus niger; assay: as above; assay type: cell-based
Experimental: as §1, §2

[3] = system: Candida tropicalis; assay: as above; assay type: cell-based
Experimental: as §1, §2

[4] = system: Trichophyton rubrum; assay: as above; assay type: cell-based
Experimental: as §1, §2

[5] = system: C. albicans; assay: as above; assay type: cell-based, Candida albicans; conditions: C. albicans
Experimental: as §1, §2

[6] = DPPH radical scavenging assay; conditions: in methanol
Experimental: (§3) It has been reported that free radical species such as reactive oxygen species (ROS), are involved in the pathogenesis of various diseases through effects on DNA directly and by acting as a tumour promoter.[59,60] The DPPH free radical scavenging activity of the ligands and complexes were studied and quantitatively antioxidant properties were determined by using phosphomolybdate method. We knew that the inhibitory effects of the tested compounds on DPPH radical are concentration dependent and the suppression ratio increases with increasing sample concentrations (Fig. S36 ^†). […] In the phosphomolybdenum assay, the antioxidant activity is expressed as the number of equivalents of ascorbic acid (Table 6). The total antioxidant activity of the compounds is in the following order complex 3 > complex 2 > complex 1 > complex 4 > H2L^3 > H2L^2 > H2L^1 > H2L^4 > ascorbic acid > [RuHClCO(PPh3)3]. The results concluded that the metal complexes are better antioxidants than their parent ligands which may be due to the chelation of the ligands to metal ion.[35] The radical scavenging ability of the new complexes is greater than that of few other reported ruthenium complexes, containing Schiff base ligands.[9]
(§4) The DPPH radical scavenging activity of the compounds have been carried out according to the reported method.[74] In this study, various concentrations of the experimental standard ascorbic acid, [RuHCl(CO)(PPh3)3], ligands (20–100 μM) and complexes (2–10 μM) in methanol were taken. Total antioxidant activity of the compounds was determined by the phosphomolybdate method.[75]

[7] = system: human breast cancer cell line MCF-7; assay: MTT cytotoxicity assay; assay type: cell-based; conditions: MTT, 48 h; read-out: IC50 values MCF-7
Text: (§5) The DNA/protein binding studies, antioxidant and antimicrobial studies had shown that the ligands and ruthenium(II) complexes studied here have therapeutic potentials and were subjected to study their anticancer activity. A number of coumarin derivatives have shown considerable anticancer activity against a number of cell lines. All the 3-acetyl-7-methoxy-coumarin-4(N)-substituted thiosemicarbazone ligands, metal precursor [RuHClCO(PPh3)3] and their new cyclometallated Ru(II) complexes were assessed for their cytotoxicity with two human derived cell lines namely human lung carcinoma (A549) and human breast cancer cells (MCF-7) by using MTT assay. For comparison purpose, cisplatin was used as a positive control under identical conditions.
(§6) Cytotoxic activity of the compounds was tested with human lung cancer cell lines A549, human breast cancer cell lines MCF-7 and human normal keratinocyte cells (HaCaT) by using MTT assay, which was done according to the earlier literature methods[77] and IC50 values obtained from nonlinear regression using GraphPad Prism 5.[78] The LDH release[79] and NO release[80] assays of the compounds was evaluated by the earlier reported methods.

[8] = system: human lung carcinoma cancer cell line A549; assay: MTT cytotoxicity assay; assay type: cell-based; conditions: MTT, 48 h; read-out: IC50 values A549
Text: as §5, §6

[9] = system: human normal keratinocyte cells (HaCaT); assay: MTT cytotoxicity assay; assay type: cell-based; conditions: MTT, 48 h, normal cells; read-out: IC50 values HaCaT
Experimental: In order to investigate the selectivity of the compounds for cancer cells rather than normal cell lines, the compounds were also screened for their anticancer activity on the human normal keratinocyte cells (HaCaT).
as §6

[10] = system: S. aureus; assay: In vitro antibacterial assay (zone of inhibition, MIC); assay type: cell-based, Staphylococcus aureus; conditions: S. aureus
Experimental: as §1, §2

[11] = system: S. pneumonie; assay: as above; assay type: cell-based, Streptococcus pneumonie; conditions: S. pneumonie
Experimental: as §1, §2

[12] = system: P. aeruginosa; assay: as above; assay type: cell-based, Pseudomonas aeruginosa; conditions: P. aeruginosa
Experimental: as §1, §2

[13] = system: S. paratyphi; assay: as above; assay type: cell-based, Salmonella paratyphi
Text: The free ligands and their cyclometallated ruthenium(II) carbonyl complexes were screened for their in vitro antimicrobial activity against certain pathogenic bacterial and fungal species at three different concentrations using disc diffusion method. […] Tested complexes had better antimicrobial activity than the ligands against all pathogens. This may be explained by Tweedy's chelation theory.[61] Coordination of ligands reduce the polarity of the metal ion essentially by partial sharing of its positive charge with the donor groups within the chelate ring system formed during the coordination and leading to the increase in lipophilic nature of the central metal atom, which favours the effective permeation through the lipid layer of microorganism.[61,62] […] When tested against T. rubrum, the activity of the complexes in the order of 3 > 2 > 1 > 4. In antibacterial studies, the complex 3 was effective against S. aureus followed by complex 2, 1 and 4 and in the case of S. pneumonie the activity of the complexes follows the order of 3 > 1 > 4 > 2. […] When tested against S. paratyphi complex 1 stood out as good followed by the complexes 4, 3 and 2 respectively.
as §2

[14] = Total antioxidant capacity, phosphomolybdate method
Experimental: as §3, §4

CC(=O)N1CCN(c2ccc(OCC3COC(Cn4ccnc4)(c4ccc(Cl)cc4Cl)O3)cc2)CC1 (stereo not shown) [Ketaconazole, reference compound]
zone of inhibition at 25 µg/mL ([1]; 25 µg/ml): 23 ± 0.25 mm | zone of inhibition at 25 µg/mL ([2]; 25 µg/ml): 21.89 ± 0.11 mm | zone of inhibition at 25 µg/mL ([3]; 25 µg/ml): 19.5 ± 0.23 mm | zone of inhibition at 25 µg/mL ([4]; 25 µg/ml): 24.12 ± 0.16 mm | zone of inhibition at 25 µg/mL ([5]; Candida albicans, 25 µg/ml): 20.34 ± 0.2 mm

O=C1O[C@H]([C@@H](O)CO)C(O)=C1O [vitamin C, ascorbic acid, reference compound]
IC50 [6]: 98.7 ± 1.5 µM

N.N.[Cl][Pt][Cl] [Cisplatin, reference compound]
IC50 [7]: 16.79 ± 0.08 µM | IC50 [8]: 15.1 ± 0.05 µM | IC50 [9]: > 40 µM

CNC(C)C1CCC(N)C(OC2C(N)CC(N)C(OC3OCC(C)(O)C(NC)C3O)C2O)O1 (stereo not shown) [Gentamicin, reference compound]
zone of inhibition at 25 µg/mL ([10]; Staphylococcus aureus, 25 µg/ml): 20.3 ± 0.43 mm | zone of inhibition at 25 µg/mL ([11]; Streptococcus, 25 µg/ml): 20.3 ± 0.39 mm | zone of inhibition at 25 µg/mL ([12]; Pseudomonas aeruginosa, 25 µg/ml): 20.2 ± 0.22 mm | zone of inhibition at 25 µg/mL ([13]; Salmonella enterica, 25 µg/ml): 20.4 ± 0.44 mm

[C-]#[O+].[Cl][RuH].c1ccc(P(c2ccccc2)c2ccccc2)cc1.c1ccc(P(c2ccccc2)c2ccccc2)cc1.c1ccc(P(c2ccccc2)c2ccccc2)cc1 [[RuHClCO(PPh3)3], reference compound]
Total antioxidant capacity [14]: 07.02 ± 0.08 μg ascorbic acid equivalents/ml | Minimum inhibitory concentration (MIC); head: IC50 VALUES [10]: 35.84 ± 0.37 µM | Zone of inhibition ([10]; 50 µg/ml): 15.19±0.08 mm | Zone of inhibition ([10]; 100 µg/ml): 17.67±0.78 mm | Minimum inhibitory concentration (MIC); head: IC50 VALUES [11]: 33.05 ± 0.28 µM | Zone of inhibition ([11]; 50 µg/ml): 14.39±0.34 mm | Zone of inhibition ([11]; 100 µg/ml): 16.44±0.11 mm | Minimum inhibitory concentration (MIC); head: IC50 VALUES [12]: 30.19 ± 0.53 µM | Zone of inhibition ([12]; 50 µg/ml): 15.78±0.44 mm | Zone of inhibition ([12]; 100 µg/ml): 17.89±0.42 mm | Zone of inhibition ([13]; 50 µg/ml): 13.29±0.65 mm | Zone of inhibition ([13]; 100 µg/ml): 17.44±0.55 mm | Minimum inhibitory concentration (MIC); head: IC50 VALUES [1]: 29.75 ± 0.54 µM | Zone of inhibition ([1]; 50 µg/ml): 15.58±0.65 mm | Zone of inhibition ([1]; 100 µg/ml): 18.38±0.65 mm | Minimum inhibitory concentration (MIC); head: IC50 VALUES [2]: 31.63 ± 0.59 µM | Zone of inhibition ([2]; 50 µg/ml): 13.19±0.34 mm | Zone of inhibition ([2]; 100 µg/ml): 15.14±0.31 mm | Minimum inhibitory concentration (MIC); head: IC50 VALUES [3]: 28.79 ± 0.41 µM | Zone of inhibition ([3]; 50 µg/ml): 14.78±0.43 mm | Zone of inhibition ([3]; 100 µg/ml): 18.59±0.41 mm | Minimum inhibitory concentration (MIC); head: IC50 VALUES [4]: 31.76 ± 0.42 µM | Zone of inhibition ([4]; 50 µg/ml): 14.18±0.54 mm | Zone of inhibition ([4]; 100 µg/ml): 17.91±0.24 mm | Minimum inhibitory concentration (MIC); head: IC50 VALUES [5]: 26.09 ± 0.48 µM | Zone of inhibition ([5]; 50 µg/ml): 13.29±0.45 mm | Zone of inhibition ([5]; 100 µg/ml): 16.67±0.11 mm | IC50 [7]: 20.1 ± 0.18 µM | IC50 [8]: 16 ± 0.21 µM | IC50 [9]: > 40 µM
